Each structure is given as a SMILES string.

Mitogen-activated protein kinase 14, sequence (Q16539 whole entry): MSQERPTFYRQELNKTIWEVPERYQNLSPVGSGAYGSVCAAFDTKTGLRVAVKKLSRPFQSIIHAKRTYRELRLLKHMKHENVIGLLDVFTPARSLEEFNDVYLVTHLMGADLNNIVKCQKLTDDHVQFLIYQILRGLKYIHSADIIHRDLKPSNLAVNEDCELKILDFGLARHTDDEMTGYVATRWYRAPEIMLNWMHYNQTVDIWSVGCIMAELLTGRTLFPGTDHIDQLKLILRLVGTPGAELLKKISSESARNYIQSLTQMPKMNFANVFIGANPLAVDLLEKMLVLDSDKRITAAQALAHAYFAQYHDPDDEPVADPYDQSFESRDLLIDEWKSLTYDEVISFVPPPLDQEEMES

One test has as its target T1, Progesterone receptor (Bos taurus, UniProt Q690N0).
T1 sequence (Q690N0 whole entry): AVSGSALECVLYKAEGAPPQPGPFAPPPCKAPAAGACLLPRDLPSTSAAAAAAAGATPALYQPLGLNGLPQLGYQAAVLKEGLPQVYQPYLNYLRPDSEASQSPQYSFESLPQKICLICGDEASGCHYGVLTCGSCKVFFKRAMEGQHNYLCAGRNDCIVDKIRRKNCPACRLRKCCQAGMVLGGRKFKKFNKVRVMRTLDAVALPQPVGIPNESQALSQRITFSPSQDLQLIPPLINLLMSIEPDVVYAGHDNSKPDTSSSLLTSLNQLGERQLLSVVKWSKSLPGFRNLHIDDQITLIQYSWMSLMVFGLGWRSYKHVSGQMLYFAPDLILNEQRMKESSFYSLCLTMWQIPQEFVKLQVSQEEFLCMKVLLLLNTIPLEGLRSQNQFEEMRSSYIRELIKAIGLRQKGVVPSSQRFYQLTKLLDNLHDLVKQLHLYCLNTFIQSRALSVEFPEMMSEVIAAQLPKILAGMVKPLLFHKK
As to the kind of experiment: DRUGMATRIX: Progesterone radioligand binding (ligand: [3H] R-5020). The class given is tissue-based, Uterus. Particulars: Not Active = under 50% inhibition at 10 µM.
Turning to `COc1ccc(CN(CCN(C)C)c2ccccn2)cc1` [PYRILAMINE], the IC50 result is “Not Active”.

Turning to `O=C1OC2(c3ccc(O)cc3Oc3cc(O)ccc32)c2ccccc21` [FLUORESCEIN], the IC50 entry is given as “Not Active”.

Regarding `COC(=O)[C@H](c1ccccc1Cl)N1CCc2sccc2C1` [CLOPIDOGREL], the IC50 result was “Not Active”.

`Brc1ccccc1` [BROMOBENZENE]: the IC50 result is “Not Active”.

A further test deals with Matrix metalloproteinase-9 (Homo sapiens, UniProt P14780). In kind it is cell-based.
Matrix metalloproteinase-9, sequence (P14780 whole entry): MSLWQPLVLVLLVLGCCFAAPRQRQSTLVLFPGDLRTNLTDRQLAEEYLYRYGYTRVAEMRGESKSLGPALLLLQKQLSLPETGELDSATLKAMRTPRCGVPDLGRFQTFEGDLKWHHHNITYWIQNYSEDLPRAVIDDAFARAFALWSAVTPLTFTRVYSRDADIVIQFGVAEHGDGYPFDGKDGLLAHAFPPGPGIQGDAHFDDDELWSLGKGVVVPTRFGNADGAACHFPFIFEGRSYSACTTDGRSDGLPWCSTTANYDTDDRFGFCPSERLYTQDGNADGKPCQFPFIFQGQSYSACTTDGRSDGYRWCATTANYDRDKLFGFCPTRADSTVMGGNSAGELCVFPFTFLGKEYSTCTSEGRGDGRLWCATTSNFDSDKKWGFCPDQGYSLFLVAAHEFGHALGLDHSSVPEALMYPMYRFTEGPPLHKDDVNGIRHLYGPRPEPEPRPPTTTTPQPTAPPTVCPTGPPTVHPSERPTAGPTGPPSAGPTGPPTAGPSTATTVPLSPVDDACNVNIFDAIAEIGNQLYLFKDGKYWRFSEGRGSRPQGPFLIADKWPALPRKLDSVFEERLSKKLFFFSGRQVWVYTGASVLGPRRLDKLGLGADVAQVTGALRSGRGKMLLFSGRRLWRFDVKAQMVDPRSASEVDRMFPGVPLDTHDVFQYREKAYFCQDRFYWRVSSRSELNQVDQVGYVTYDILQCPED
Settings: not given
As for `COc1ccc(CN(CCN(C)C)c2ccccn2)cc1` [PYRILAMINE], the IC50 result is “Not Active”.

As for `O=C1OC2(c3ccc(O)cc3Oc3cc(O)ccc32)c2ccccc21` [FLUORESCEIN], the IC50 result is “Not Active”.

Regarding `COC(=O)[C@H](c1ccccc1Cl)N1CCc2sccc2C1` [CLOPIDOGREL], the IC50 entry is listed as “Not Active”.

On to `Brc1ccccc1` [BROMOBENZENE], for which the 50% inhibitory concentration (IC50) entry is recorded as “Not Active”.

For another test, the target named is Nitric oxide synthase 1 (Rattus norvegicus, UniProt P29476). The class given is tissue-based, Cerebellum. Also: in other assays of this panel Not Active means under 50% inhibition at 10 µM.
Settings: not given
On to `COc1ccc(CN(CCN(C)C)c2ccccn2)cc1` [PYRILAMINE], for which the IC50 entry is “Not Active”.

For the compound `O=C1OC2(c3ccc(O)cc3Oc3cc(O)ccc32)c2ccccc21` [FLUORESCEIN], the IC50 entry was “Not Active”.

Turning to `COC(=O)[C@H](c1ccccc1Cl)N1CCc2sccc2C1` [CLOPIDOGREL], the IC50 result is on record as “Not Active”.

Consider `Brc1ccccc1` [BROMOBENZENE], for which the IC50 entry is “Not Active”.

The target in another test is Protein kinase C alpha type (Homo sapiens, UniProt P17252). The class given is cell-based. The conditions noted are these: sf9.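 Also: inhibition of PKCalpha kinase activity measured in an enzyme assay with histone as the phosphorylation substrate; in other assays of this panel Not Active means under 50% inhibition at 10 µM.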
As for `COc1ccc(CN(CCN(C)C)c2ccccn2)cc1` [PYRILAMINE], the IC50 entry is on record as “Not Active”.

As to `O=C1OC2(c3ccc(O)cc3Oc3cc(O)ccc32)c2ccccc21` [FLUORESCEIN], the 50% inhibitory concentration (IC50) result is reported as “Not Active”.

Consider `COC(=O)[C@H](c1ccccc1Cl)N1CCc2sccc2C1` [CLOPIDOGREL], for which the IC50 result is given as “Not Active”.

Consider `Brc1ccccc1` [BROMOBENZENE], for which the IC50 entry is recorded as “Not Active”.

The target of the next test is Vascular endothelial growth factor receptor 1 (Homo sapiens, UniProt P17948). The class given is cell-based. Particulars: huvec. Also: in other assays of this panel Not Active means under 50% inhibition at 10 µM.
Vascular endothelial growth factor receptor 1, sequence (P17948 whole entry): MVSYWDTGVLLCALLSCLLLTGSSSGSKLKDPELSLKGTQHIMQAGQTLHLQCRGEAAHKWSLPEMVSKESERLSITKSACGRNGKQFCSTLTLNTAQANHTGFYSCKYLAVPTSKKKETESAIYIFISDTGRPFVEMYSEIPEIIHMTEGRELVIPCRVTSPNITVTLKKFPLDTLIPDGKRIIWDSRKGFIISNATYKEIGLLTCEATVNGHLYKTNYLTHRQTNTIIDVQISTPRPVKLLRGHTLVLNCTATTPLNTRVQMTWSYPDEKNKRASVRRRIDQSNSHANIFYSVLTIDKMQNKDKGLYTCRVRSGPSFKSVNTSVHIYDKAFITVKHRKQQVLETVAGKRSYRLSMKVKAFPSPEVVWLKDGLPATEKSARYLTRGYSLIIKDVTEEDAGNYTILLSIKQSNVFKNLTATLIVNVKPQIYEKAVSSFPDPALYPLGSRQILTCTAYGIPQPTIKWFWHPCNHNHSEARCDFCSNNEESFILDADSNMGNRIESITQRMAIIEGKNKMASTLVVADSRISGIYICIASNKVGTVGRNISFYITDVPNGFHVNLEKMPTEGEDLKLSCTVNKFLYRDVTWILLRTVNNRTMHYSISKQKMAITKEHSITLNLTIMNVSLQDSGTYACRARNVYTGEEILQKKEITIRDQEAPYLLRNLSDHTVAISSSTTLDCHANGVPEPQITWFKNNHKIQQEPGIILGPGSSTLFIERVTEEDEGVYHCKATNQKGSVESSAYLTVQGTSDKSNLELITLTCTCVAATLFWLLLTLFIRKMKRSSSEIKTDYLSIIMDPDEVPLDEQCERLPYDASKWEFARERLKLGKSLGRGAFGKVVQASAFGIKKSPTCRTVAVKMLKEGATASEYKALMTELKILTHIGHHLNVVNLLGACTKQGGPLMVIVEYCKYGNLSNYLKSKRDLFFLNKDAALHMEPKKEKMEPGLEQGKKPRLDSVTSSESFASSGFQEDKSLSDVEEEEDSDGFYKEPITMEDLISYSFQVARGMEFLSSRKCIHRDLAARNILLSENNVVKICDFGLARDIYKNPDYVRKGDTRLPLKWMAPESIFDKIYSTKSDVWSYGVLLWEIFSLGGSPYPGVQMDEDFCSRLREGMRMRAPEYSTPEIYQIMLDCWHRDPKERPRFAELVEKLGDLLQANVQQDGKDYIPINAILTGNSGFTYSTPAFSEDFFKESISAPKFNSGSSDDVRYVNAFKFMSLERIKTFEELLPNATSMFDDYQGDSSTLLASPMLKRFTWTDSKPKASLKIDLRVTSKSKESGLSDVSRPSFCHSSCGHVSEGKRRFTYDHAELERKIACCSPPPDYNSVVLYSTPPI
With `COc1ccc(CN(CCN(C)C)c2ccccn2)cc1` [PYRILAMINE], the 50% inhibitory concentration (IC50) result is “Not Active”.

As for `O=C1OC2(c3ccc(O)cc3Oc3cc(O)ccc32)c2ccccc21` [FLUORESCEIN], the 50% inhibitory concentration (IC50) result was “Not Active”.

In the case of `COC(=O)[C@H](c1ccccc1Cl)N1CCc2sccc2C1` [CLOPIDOGREL], the concentration for half-maximal inhibition (IC50) entry is “Not Active”.

`Brc1ccccc1` [BROMOBENZENE]: the IC50 result is reported as “Not Active”.

Tested on in a further test: not listed separately
As to the kind of experiment: DRUGMATRIX: Serotonin (5-Hydroxytryptamine) 5-HT3 radioligand binding (ligand: [3H] GR-65630). In kind it is cell membranes, Membrane. Particulars: hek293; Not Active = under 50% inhibition at 10 µM.
Turning to `COc1ccc(CN(CCN(C)C)c2ccccn2)cc1` [PYRILAMINE], the IC50 result is listed as “Not Active” and the Ki result is on record as “Not Active”.

For `O=C1OC2(c3ccc(O)cc3Oc3cc(O)ccc32)c2ccccc21` [FLUORESCEIN], the IC50 result is “Not Active” and the Ki result is on record as “Not Active”.

In the case of `COC(=O)[C@H](c1ccccc1Cl)N1CCc2sccc2C1` [CLOPIDOGREL], the IC50 result is listed as “Not Active” and the inhibitory constant (Ki) result is “Not Active”.

`Brc1ccccc1` [BROMOBENZENE]: the IC50 result is recorded as “Not Active” and the Ki entry is recorded as “Not Active”.

The target of a further test is Sigma non-opioid intracellular receptor 1 (Homo sapiens, UniProt Q99720). Description: DRUGMATRIX: Sigma1 radioligand binding (ligand: [3H] Haloperidol). The class given is cell membranes, Jurkat, Membrane. Particulars: Not Active = under 50% inhibition at 10 µM; read-out: IC50.
Sigma non-opioid intracellular receptor 1, sequence (Q99720 whole entry): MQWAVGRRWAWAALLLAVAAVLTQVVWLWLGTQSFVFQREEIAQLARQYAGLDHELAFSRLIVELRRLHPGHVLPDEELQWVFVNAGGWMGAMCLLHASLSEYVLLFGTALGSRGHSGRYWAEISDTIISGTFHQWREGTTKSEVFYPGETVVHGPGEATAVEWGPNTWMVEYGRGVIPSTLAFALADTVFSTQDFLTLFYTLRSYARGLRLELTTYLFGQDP
Take `COc1ccc(CN(CCN(C)C)c2ccccn2)cc1` [PYRILAMINE]: the IC50 amounted to 1.56 µM.

Still in this test, the particulars now being: Not Active = under 50% inhibition at 10 µM; read-out: Ki.
`COc1ccc(CN(CCN(C)C)c2ccccn2)cc1` [PYRILAMINE]: the Ki was found to be 0.655 µM.

Staying with this test, now noted: jurkat; Not Active = under 50% inhibition at 10 µM.
In the case of `O=C1OC2(c3ccc(O)cc3Oc3cc(O)ccc32)c2ccccc21` [FLUORESCEIN], the IC50 result is “Not Active”.

On to `COC(=O)[C@H](c1ccccc1Cl)N1CCc2sccc2C1` [CLOPIDOGREL], for which the IC50 result was “Not Active”.

With `Brc1ccccc1` [BROMOBENZENE], the half-inhibitory concentration (IC50) entry is recorded as “Not Active”.

The target of another test is Delta-type opioid receptor (Homo sapiens, UniProt P41143). The class given is cell membranes, HEK293, Membrane. Particulars: hek293. Also: in other assays of this panel Not Active means under 50% inhibition at 10 µM.
Delta-type opioid receptor, sequence (P41143 whole entry): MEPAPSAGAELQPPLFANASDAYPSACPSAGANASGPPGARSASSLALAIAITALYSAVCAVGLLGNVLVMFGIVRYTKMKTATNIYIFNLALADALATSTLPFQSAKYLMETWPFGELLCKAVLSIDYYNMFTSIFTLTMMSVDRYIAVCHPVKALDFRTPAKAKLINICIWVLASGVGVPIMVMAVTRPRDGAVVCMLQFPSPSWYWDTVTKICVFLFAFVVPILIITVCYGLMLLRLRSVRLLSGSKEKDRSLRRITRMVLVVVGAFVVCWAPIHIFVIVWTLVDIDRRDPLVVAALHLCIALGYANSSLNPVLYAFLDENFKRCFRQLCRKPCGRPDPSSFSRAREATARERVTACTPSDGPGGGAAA
In the case of `COc1ccc(CN(CCN(C)C)c2ccccn2)cc1` [PYRILAMINE], the 50% inhibitory concentration (IC50) entry is “Not Active”.

Turning to `O=C1OC2(c3ccc(O)cc3Oc3cc(O)ccc32)c2ccccc21` [FLUORESCEIN], the half-inhibitory concentration (IC50) entry is reported as “Not Active”.

Turning to `COC(=O)[C@H](c1ccccc1Cl)N1CCc2sccc2C1` [CLOPIDOGREL], the half-maximal inhibitory concentration (IC50) result was “Not Active”.

As for `Brc1ccccc1` [BROMOBENZENE], the IC50 entry is listed as “Not Active”.

Another test has as its target T2, Muscarinic acetylcholine receptor M4 (Homo sapiens, UniProt P08173). Also: in other assays of this panel Not Active means under 50% inhibition at 10 µM.
T2 sequence (P08173 whole entry): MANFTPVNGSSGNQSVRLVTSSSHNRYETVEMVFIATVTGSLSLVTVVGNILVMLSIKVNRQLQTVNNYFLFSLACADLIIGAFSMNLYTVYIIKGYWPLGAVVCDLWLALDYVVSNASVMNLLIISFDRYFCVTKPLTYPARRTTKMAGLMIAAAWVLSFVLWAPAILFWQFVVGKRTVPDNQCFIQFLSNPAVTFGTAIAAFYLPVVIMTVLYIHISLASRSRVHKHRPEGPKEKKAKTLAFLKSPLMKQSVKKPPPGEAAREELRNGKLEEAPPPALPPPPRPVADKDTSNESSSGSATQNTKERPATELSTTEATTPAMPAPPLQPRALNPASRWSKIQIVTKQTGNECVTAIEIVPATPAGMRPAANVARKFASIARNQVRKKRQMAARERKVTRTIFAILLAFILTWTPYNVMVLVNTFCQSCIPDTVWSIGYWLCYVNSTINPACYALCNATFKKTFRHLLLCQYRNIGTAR
The class given is cell membranes, CHO-K1, Membrane. Particulars: cho-k1.
As for `COc1ccc(CN(CCN(C)C)c2ccccn2)cc1` [PYRILAMINE], the concentration for half-maximal inhibition (IC50) result is reported as “Not Active”.

Consider `O=C1OC2(c3ccc(O)cc3Oc3cc(O)ccc32)c2ccccc21` [FLUORESCEIN], for which the IC50 entry is “Not Active”.

In the case of `COC(=O)[C@H](c1ccccc1Cl)N1CCc2sccc2C1` [CLOPIDOGREL], the IC50 entry is recorded as “Not Active”.

As for `Brc1ccccc1` [BROMOBENZENE], the IC50 result is given as “Not Active”.

Another test concerns the target Mitogen-activated protein kinase 14 (Homo sapiens, UniProt Q16539). Also on record: species or system Escherichia coli.
Settings: not given
In the case of `COc1ccc(CN(CCN(C)C)c2ccccn2)cc1` [PYRILAMINE], the IC50 entry was “Not Active”.

With `O=C1OC2(c3ccc(O)cc3Oc3cc(O)ccc32)c2ccccc21` [FLUORESCEIN], the IC50 entry is “Not Active”.

With `COC(=O)[C@H](c1ccccc1Cl)N1CCc2sccc2C1` [CLOPIDOGREL], the IC50 result was “Not Active”.

On to `Brc1ccccc1` [BROMOBENZENE], for which the IC50 result is reported as “Not Active”.

The target of another test is T3, B2 bradykinin receptor (Homo sapiens, UniProt P30411). Also: in other assays of this panel Not Active means under 50% inhibition at 10 µM.
T3 sequence (P30411 whole entry): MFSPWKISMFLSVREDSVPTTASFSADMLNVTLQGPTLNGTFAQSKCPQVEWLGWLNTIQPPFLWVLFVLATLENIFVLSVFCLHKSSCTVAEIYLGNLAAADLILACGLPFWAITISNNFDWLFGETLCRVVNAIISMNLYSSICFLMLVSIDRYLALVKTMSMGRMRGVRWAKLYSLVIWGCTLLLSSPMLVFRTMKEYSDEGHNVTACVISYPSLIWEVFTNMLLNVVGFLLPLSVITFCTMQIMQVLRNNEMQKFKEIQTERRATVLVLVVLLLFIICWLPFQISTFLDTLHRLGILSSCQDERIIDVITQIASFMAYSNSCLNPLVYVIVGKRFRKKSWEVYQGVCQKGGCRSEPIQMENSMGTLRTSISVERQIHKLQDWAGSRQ
The class given is cell membranes, Membrane. The conditions noted are these: chem-1.
Consider `COc1ccc(CN(CCN(C)C)c2ccccn2)cc1` [PYRILAMINE], for which the half-maximal inhibitory concentration (IC50) entry was “Not Active”.

Take `O=C1OC2(c3ccc(O)cc3Oc3cc(O)ccc32)c2ccccc21` [FLUORESCEIN]: the IC50 entry was “Not Active”.

For the compound `COC(=O)[C@H](c1ccccc1Cl)N1CCc2sccc2C1` [CLOPIDOGREL], the IC50 result is reported as “Not Active”.

For the compound `Brc1ccccc1` [BROMOBENZENE], the IC50 entry was “Not Active”.

In another test the target is T4, Alpha-1A adrenergic receptor (Rattus norvegicus, UniProt P43140).
T4 sequence (P43140 whole entry): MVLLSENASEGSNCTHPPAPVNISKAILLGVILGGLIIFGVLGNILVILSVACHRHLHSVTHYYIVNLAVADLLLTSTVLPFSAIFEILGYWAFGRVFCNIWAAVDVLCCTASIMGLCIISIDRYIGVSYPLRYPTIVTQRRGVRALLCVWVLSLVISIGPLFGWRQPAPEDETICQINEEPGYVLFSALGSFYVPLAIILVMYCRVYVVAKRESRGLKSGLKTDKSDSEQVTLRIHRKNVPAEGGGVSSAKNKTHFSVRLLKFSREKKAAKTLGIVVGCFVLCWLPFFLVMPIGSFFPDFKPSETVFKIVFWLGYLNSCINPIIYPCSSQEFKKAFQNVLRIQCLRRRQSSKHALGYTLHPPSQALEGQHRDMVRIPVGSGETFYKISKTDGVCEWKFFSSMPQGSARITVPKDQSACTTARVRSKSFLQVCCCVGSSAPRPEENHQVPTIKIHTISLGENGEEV
As to the kind of experiment: DRUGMATRIX: Alpha-1A adrenergic receptor radioligand binding (ligand: prazosin). In kind it is cell membranes, Wistar, Submaxillary gland, Membrane. Particulars: Not Active = under 50% inhibition at 10 µM.
For the compound `COc1ccc(CN(CCN(C)C)c2ccccn2)cc1` [PYRILAMINE], the IC50 entry is on record as “Not Active”.

Consider `O=C1OC2(c3ccc(O)cc3Oc3cc(O)ccc32)c2ccccc21` [FLUORESCEIN], for which the IC50 result is reported as “Not Active”.

`COC(=O)[C@H](c1ccccc1Cl)N1CCc2sccc2C1` [CLOPIDOGREL]: the IC50 entry is reported as “Not Active”.

Take `Brc1ccccc1` [BROMOBENZENE]: the IC50 entry was “Not Active”.

What is called IC50 is the concentration that inhibits the measured activity by half. What is called Ki is the equilibrium dissociation constant of an inhibitor or competing ligand from its target.

For the origin of these results see ChEMBL document CHEMBL1909046, “DrugMatrix in vitro pharmacology data”.
